Key:
Type in all cases: biochemical
AKT3 = biological target: T1, AKT3 (Homo sapiens, UniProt Q9Y243); test: AKT Kinase Assay (IMAP fluorescent polarisation) vs AKT3
T1 construct: purchased SignalChem
Method: (§1) Testing of the compounds was performed using an AKT Kinase Assay:
(§2) Activated AKT isoforms 1, 2 and 3 were assayed utilising a 5′ FAM Crosstide (Seq. GRPRTSSFAEG-OH)(SEO ID NO: 1). The extent of kinase phosphorylation was determined by fluorescent polarisation using IMAP progressive binding reagent, which introduces binding beads which allow the reagent to specifically bind to phosphate residues via covalent co-ordination complex bonds.
(§3) iMAP binding solution stops Crosstide/kinase interaction and specifically binds phosphorylated substrates. The degree of phosphorylation is determined by fluorescent polarisation (excitation 485 nm; emission 528 nm) or the reduction in speed of rotation of the excited substrate.
(§4) The following materials were used in the assay: • a) Activated AKT isoforms (SignalChem.) dissolved in Complete Reaction buffer at a pre-determined concentration selected so that the assay was carried out in the linear range. • b) AKT substrate peptide: FAM Crosstide (R7110) Molecular Devices, diluted in complete reaction buffer. • c) iMAP Progressive Screening Express Kit (R8127) Molecular Devices • d) Complete Reaction Buffer containing 0.1% BSA, 10 mM Tris-HCl, 10 mM MgCl2, 0.05% NaN3 and 0.01% phosphate free BSA, 1 mM DTT • e) Progressive Binding Solution containing 75% Buffer A, 25% Buffer B and low volume Binding Reagent which contains the binding entity for the assay • f) ATP diluted in complete reaction buffer • g) Black polystyrene 384 well assay plates (Nunc). • h) Biotek Synergy 4 Hybrid Plate reader.
(§5) 5 μl of test compound was dissolved in DMSO (Sigma Aldrich) and serially diluted in complete reaction buffer to give a fourteen point half log dose response and plated into 384 well black plates. The compound was incubated at room temperature with activated AKT isoform ([…] ) at the pre-determined concentration, for 45 minutes.
(§6) 2.5 μl of ATP solution mixed with 2.5 μl of AKT substrate peptide (FAM Crosstide (R7110) Molecular Devices) were dispensed into each well and the plate centrifuged at 1000 rpm for 20 seconds to ensure homogenous mixing of reagents. The reaction mix was incubated in the dark for one hour at room temperature.
(§7) The kinase reaction was stopped by the addition of Progressive Binding Solution and the mixture allowed to equilibrate for one hour in the dark, at room temperature.
(§8) The fluorescent polarisation generated in each well was determined using a […] Synergy 4 Hybrid plate reader. In brief, each reaction solution was excited at 485 nm with the emission measured at 528 nm in both the parallel and perpendicular pathway.
(§9) The polarisation value generated in each well was calculated by Gen5 software (Biotek) and the % inhibition of kinase activity compared to vehicle control was calculated via GraphPad Prism. IC50 values for each compound were calculated by non-linear regression analysis using Prism software.
(§10) All plates were internally controlled by two methods. Firstly, by calculating the signal:noise ratio; based on kinase polarisation without inhibitor and polarisation generated by complete reaction buffer in the absence of activated kinase. Secondly by determining IC50 values generated by known inhibitors of the AKT isoforms.

AKT1 = biological target: T2, AKT1 (Homo sapiens, UniProt P31749); test: AKT Kinase Assay (IMAP fluorescent polarisation) vs AKT1
T2 construct: purchased SignalChem
T2 sequence (P31749 whole entry): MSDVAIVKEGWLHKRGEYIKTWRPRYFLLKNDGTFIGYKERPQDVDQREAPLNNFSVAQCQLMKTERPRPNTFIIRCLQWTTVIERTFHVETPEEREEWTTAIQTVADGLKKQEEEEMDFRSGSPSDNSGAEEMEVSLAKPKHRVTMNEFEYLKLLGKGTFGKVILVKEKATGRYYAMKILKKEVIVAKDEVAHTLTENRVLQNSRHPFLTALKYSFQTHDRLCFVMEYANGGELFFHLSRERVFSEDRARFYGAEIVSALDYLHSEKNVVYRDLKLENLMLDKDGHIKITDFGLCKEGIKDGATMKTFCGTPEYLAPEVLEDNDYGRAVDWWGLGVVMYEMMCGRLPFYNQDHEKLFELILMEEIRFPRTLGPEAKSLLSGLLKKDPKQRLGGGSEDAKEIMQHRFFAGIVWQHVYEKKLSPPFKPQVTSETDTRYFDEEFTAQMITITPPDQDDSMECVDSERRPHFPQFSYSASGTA
Method: as §1, §2, §3, §4, §5, §6, §7, §8, §9, §10

AKT2 = biological target: T3, AKT2 (Homo sapiens, UniProt P31751); test: AKT Kinase Assay (IMAP fluorescent polarisation) vs AKT2
T3 construct: purchased SignalChem
T3 sequence (P31751 whole entry): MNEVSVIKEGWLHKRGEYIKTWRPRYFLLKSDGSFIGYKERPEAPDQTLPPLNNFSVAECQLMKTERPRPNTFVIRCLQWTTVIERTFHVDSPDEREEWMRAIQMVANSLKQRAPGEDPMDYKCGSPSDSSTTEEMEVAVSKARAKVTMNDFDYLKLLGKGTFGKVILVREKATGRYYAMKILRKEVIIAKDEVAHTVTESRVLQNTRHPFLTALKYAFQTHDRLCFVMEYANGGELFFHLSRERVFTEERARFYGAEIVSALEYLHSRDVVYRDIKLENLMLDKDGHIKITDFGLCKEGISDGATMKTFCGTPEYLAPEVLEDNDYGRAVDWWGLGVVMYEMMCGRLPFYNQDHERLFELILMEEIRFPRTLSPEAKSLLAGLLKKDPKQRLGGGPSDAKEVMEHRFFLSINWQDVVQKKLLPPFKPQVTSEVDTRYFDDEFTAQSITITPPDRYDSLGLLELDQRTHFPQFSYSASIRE
Method: as §1, §2, §3, §4, §5, §6, §7, §8, §9, §10

T1 sequence (Q9Y243 whole entry): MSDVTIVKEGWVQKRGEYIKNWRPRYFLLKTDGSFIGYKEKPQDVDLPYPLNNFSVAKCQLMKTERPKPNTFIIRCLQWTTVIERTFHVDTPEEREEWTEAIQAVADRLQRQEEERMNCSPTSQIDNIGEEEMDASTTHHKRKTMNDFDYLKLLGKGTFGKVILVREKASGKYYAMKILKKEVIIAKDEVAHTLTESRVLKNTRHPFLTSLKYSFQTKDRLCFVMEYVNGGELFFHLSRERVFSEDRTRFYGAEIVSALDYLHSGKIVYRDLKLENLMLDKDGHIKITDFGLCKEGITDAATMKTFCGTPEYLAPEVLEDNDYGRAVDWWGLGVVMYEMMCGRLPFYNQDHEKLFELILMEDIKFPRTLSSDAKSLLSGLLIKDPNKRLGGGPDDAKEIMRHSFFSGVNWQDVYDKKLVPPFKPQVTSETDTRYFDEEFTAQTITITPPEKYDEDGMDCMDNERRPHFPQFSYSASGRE

| Structure (SMILES) | IC50 (AKT3) [nM] | IC50 (AKT1) [nM] | IC50 (AKT2) [nM] |
| --- | --- | --- | --- |
| NC1(c2ccc(-c3nc4c(cc3-c3ccccc3)-c3n[nH]c(O)c3CC4)cc2)CCC1 [Example 7, 7-(4-(1-aminocyclobutyl)phenyl)-8-phenyl-4,5-dihydro-2H-pyrazolo[3,4f]quinolin-3-ol] | > 10000 | ≤ 100 | 1000 to 10000 |
| CC12CCc3nc(-c4ccc(C5(N)CCC5)cc4)c(-c4ccccc4)cc3C1=NNC2=O (stereo not drawn) [Example 8, 7-(4-(1-aminocyclobutyl)phenyl)-3a-methyl-8-phenyl-4,5-dihydro-2H-pyrazolo[3,4-f]quinolin-3(3aH)-one] | > 10000 | 100 to 1000 | 100 to 1000 |
| CSc1[nH]nc2c1CCc1nc(-c3ccc(C4(N)CCC4)cc3)c(-c3ccccc3)cc1-2 [Example 9, 1-(4-(3-(methylthio)-8-phenyl-4,5-dihydro-2H-pyrazolo[3,4-f]quinolin-7-yl)phenyl)cyclobutanamine] | > 10000 | 100 to 1000 | 1000 to 10000 |
| CS(=O)(=O)c1[nH]nc2c1CCc1nc(-c3ccc(C4(N)CCC4)cc3)c(-c3ccccc3)cc1-2 [Example 10, 1-(4-(3-(methylsulfonyl)-8-phenyl-4,5-dihydro-2H-pyrazolo[3,4-f]quinolin-7-yl)phenyl)cyclobutanamine] | > 10000 | 100 to 1000 | 1000 to 10000 |
| CNc1[nH]nc2c1CCc1nc(-c3ccc(C4(N)CCC4)cc3)c(-c3ccccc3)cc1-2 [Example 11, 7-(4-(1-aminocyclobutyl)phenyl)-N-methyl-8-phenyl-4,5-dihydro-2H-pyrazolo[3,4-f]quinolin-3-amine] | > 10000 | 100 to 1000 | 100 to 1000 |
| NC1(c2ccc(-c3nc4c(cc3-c3ccccc3)-c3n[nH]c(NCCO)c3CC4)cc2)CCC1 [Example 12, 2-((7-(4-(1-aminocyclobutyl)phenyl)-8-phenyl-4,5-dihydro-2H-pyrazolo[3,4-f]quinolin-3-yl)amino)ethanol] | > 10000 | ≤ 100 | 1000 to 10000 |

Continued, values first:

| IC50 (AKT3) [nM] | IC50 (AKT1) [nM] | IC50 (AKT2) [nM] | Structure (SMILES) |
| --- | --- | --- | --- |
| > 10000 | 1000 to 10000 | 1000 to 10000 | NC1(c2ccc(-c3nc4c(cc3-c3ccccc3)C(=O)CCC4)cc2)CCC1 [Example 1, 2-(4-(1-aminocyclobutyl)phenyl)-3-phenyl-7,8-dihydroquinolin-5(6H)-one] |
| > 10000 | 100 to 1000 | 1000 to 10000 | NC1(c2ccc(-c3nc4c(cc3-c3ccccc3)/C(=N/O)CCC4)cc2)CCC1 [Example 2, 2-(4-(1-aminocyclobutyl)phenyl)-3-phenyl-7,13-dihydroquinolin-5(6H)-one oxime] |
| > 10000 | 1000 to 10000 | > 10000 | CO/N=C1\CCCc2nc(-c3ccc(C4(N)CCC4)cc3)c(-c3ccccc3)cc21 [Example 3, 2-(4-(1-aminocyclobutyl)phenyl)-3-phenyl-7,8-dihydroquinolin-5(6H)-one O-methyl oxime] |
| > 10000 | 100 to 1000 | 1000 to 10000 | Cn1cc2c(n1)-c1cc(-c3ccccc3)c(-c3ccc(C4(N)CCC4)cc3)nc1CC2 [Example 5, 1-(4-(2-methyl-8-phenyl-4,5-dihydro-2H-pyrazolo[3,4-f]quinolin-7-yl)phenyl)cyclobutanamine] |
| 1000 to 10000 | 100 to 1000 | 1000 to 10000 | Cn1ncc2c1-c1cc(-c3ccccc3)c(-c3ccc(C4(N)CCC4)cc3)nc1CC2 [Example 6, 1-(4-(1-methyl-8-phenyl-4,5-dihydro-1H-pyrazolo[3,4-f]quinolin-7-yl)phenyl)cyclobutanamine] |
| 1000 to 10000 | 100 to 1000 | 100 to 1000 | NC1(c2ccc(-c3nc4c(cc3-c3ccccc3)-c3n[nH]c(N5CCOCC5)c3CC4)cc2)CCC1 [Example 13, 1-(4-(3-morpholino-8-phenyl-4,5-dihydro-2H-pyrazolo[3,4-f]quinolin-7-yl)phenyl)cyclobutanamine] |
| 1000 to 10000 | 100 to 1000 | 1000 to 10000 | Cc1nc2c(n1O)CCc1nc(-c3ccc(C4(N)CCC4)cc3)c(-c3ccccc3)cc1-2 [Example 14, 7-(4-(1-aminocyclobutyl)phenyl)-2-methyl-8-phenyl-4,5-dihydro-3H-imidazo[4,5-f]quinolin-3-ol] |

Source: US9221838B2, “Inhibitors of AKT activity” (ALMAC DISCOVERY LIMITED, priority 2009, dated 2015)
